# Experiments:
# Format in all cases: cell-based
# human myoblast cells = test: Human myoblast differentiation, % area eMyHC (IGF2, sodium butyrate); conditions: 96h, vehicle 6.813
# Experimental: Fresh media was added every 24 hours. […] The total area of eMyHc positive cells was analyzed, and treated cells were compared to cells treated with the vehicle alone. […] Myoblast were cultured 96h in the presence of BMP7 at indicated dose. Fresh media and BMP7 was added every 24h. Mean∓S.D. (*p<0.05 by One-Way Anova Tukey Honest Significant Difference, n=2-12) […] Fresh media was added every 24 hours. […] FIG. 3A: Bar graph of % Area eMyHC+ age human myoblast (person) in response to indicated treatment compared to Vehicle (vehicle). Myoblast were cultured 96h in the presence of factors at indicated dose. Fresh media and factors were added every 24h. Mean∓S.D. Significant p-values (Vehicle IGF2: 0.03 ug/mL: 1.42E-08, Vehicle NaBut: 1 nM IGF2: 0.03 ug/mL: 1.79E-11, Vehicle NaBut: 10 nM IGF2: 0.03 ug/mL: 1.80E-11, Vehicle NaBut: 100 nM IGF2: 0.03 ug/mL: 1.79E-11). […] Myoblast were cultured 96h in the presence of BMP7 at indicated dose. Mean±S.D. Significant p-values (IGF2 NaBut: 1 nM IGF2: 0.03 ug/mL: 1.88E-3, Vehicle NaBut: 10 nM IGF2: 0.03 ug/mL: 4.80E-3, Vehicle NaBut: 100 nM IGF2: 0.03 ug/mL: 1.87E-3) (*p<0.05 by One-Way ANOVA Tukey Honest Significant Difference, n=2-12)
# DM1 human myoblast [1] = test: Gene expression fold change in DM1 human myoblast; conditions: IGF2 200 ng/mL
# DM1 human myoblast [2] = test: DM1 human myoblast fusion (% eMyHC area); conditions: 96h; vehicle 0.45
# Experimental: (§1) Bar graph of % EdU+ human myoblast (person) and % area MyHC in response to IGF2. Myoblast were cultured 72h for proliferation and 96h for fusion in the presence of indicated factor. Mean∓S.D. Mean∓SD. Significant p-values (EdU: Vehicle˜IGF2: 6.8E-3, % eMyHC Area: Vehicle˜IGF2: 1.9E-4) (*p<0.05 by Students Two-Tailed T-test, n=3-6).
# (§2) IGF2 was tested individually for its ability to promote proliferation and/or fusion of human muscle progenitor cells from an individual with myotonic dystrophy type 1 (hMD)—a muscular dystrophy caused by mutations in the DMPK1 gene. The effect of IGF2 on myogenic activity was assayed in biological triplicate across a range of concentrations centered around expected physiological levels by adding each factor to hMD myoblasts for 72 hours with daily media changes (DMEM +2% horse serum) and a second pulse of factors at the first media change. After 72 or 96 hours, cells were pulsed for 2-5 hours with EdU (30 uM), ethanol fixed, stained with Hoescht 3342, immunostained for proliferation—as measured by the percent of cells staining positive for EdU (% EdU)—, and immunostained for differentiation—as measured by the increase in cellular area staining positive for embryonic myosin heavy chain (% eMyHC) relative to the negative controls, which received media and vehicle only. […]
# DM1 human myoblast [3] = test: DM1 human myoblast proliferation (EdU); conditions: 72h; vehicle 1.0
# Experimental: as §1, §2
# [4] = tested on: aged human myoblast cell lines; test: Myogenic gene RNA expression in aged human myoblasts by real-time qPCR
# Experimental: Myogenic gene RNA expression (fold change to FM) in response to vehicle (FM) in mouse myoblast cell lines monitored by real-time qPCR. Myoblast were cultured 48h in fusion media. Mean±SD. n=3. (Y,Z) Differential induction of myogenic gene expression by FGF17 in human myoblast myoblasts. Quantitation table of myogenic gene RNA expression (fold change to FM-fusion media (DMEM+2% horse serum)) in response to FM or rh-FGF17 in aged human myoblast cell lines by real-time qPCR. Myoblast were cultured (B) 48 hours or (C) 72 hours in FM. Mean∓SD. n=3.
# RNA was isolated from each well (RNeasy Mini Kit, Qiagen) and cDNA was obtained by reverse-transcription (High Capacity Reverse Transcription Kit, Thermo Fisher Scientific). Real-time quantitative PCR was performed using QuantStudio3 (Thermo Fisher).
# Aged human myoblasts were cultured in well plates. […] Cells that had been cultured with IGF2 had increases in levels of MYOG at 48 hours and levels of MYOD at 72 hours.
# [5] = 48h, BMP7 50 ng/mL, Butyrate 100 nM, FM 1.000
substance,measurement,setting,value
"IGF2: IGF2 polypeptide, IGF1R agonist",% eMyHC,human myoblast cells; IGF2 0.015 ug/mL,10.843%
same,% eMyHC,"human myoblast cells; IGF2 0.03 ug/mL, aged human myoblast",16.620%
same,ATP1B1 expression fold change compared to FM (vehicle),DM1 human myoblast [1]; 48h,3.018
same,MYF5 expression fold change compared to FM,DM1 human myoblast [1]; [5],0.730
same,MYOD1 expression fold change compared to FM,DM1 human myoblast [1]; [5],1.252
same,MYOG expression fold change compared to FM,DM1 human myoblast [1]; [5],2.972
same,CKM expression fold change compared to vehicle,DM1 human myoblast [1]; 96h,5.165
same,MYH3 expression fold change compared to vehicle,DM1 human myoblast [1]; 96h,14.833
same,% eMyHC are,DM1 human myoblast [2],5.49%
same,EdU FC,DM1 human myoblast [3],2.18
same,MYOD1 RNA expression (fold change to FM),"[4]; 48 hr, FM 1.001",0.519
same,MYOG RNA expression (fold change to FM),"[4]; 48 hr, FM 1.013",5.756
same,MYF5 RNA expression (fold change to FM),"[4]; 48 hr, FM 1.04",0.409
same,MYF5 RNA expression (fold change to FM),"[4]; 72 hr, FM 1.023",0.708
same,MYOD1 RNA expression (fold change to FM),"[4]; 72 hr, FM 1.055",5.723
same,MYOG RNA expression (fold change to FM),"[4]; 72 hr, FM 1.092",0.018
